Several values for one entry are separate records, joined by “and”; a condition that tells them apart may be missing. Equal values may be shown once. Inconclusive results and toxic doses are left out.
Test system: B6C3F1 mice, B16 melanoma ip, median survival T/C
Assay: NCI In Vivo Anticancer Drug Screen. Data for tumor model B16 Melanoma (intraperitoneal) in B6C3F1 mice
Details: endpoint: median survival time, higher = longer survival
Outline: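 Values are T/C ratios: the measurement in treated animals divided by that in vehicle-treated controls, using survival or tumor size in mice carrying transplantable tumors.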

[1] = dose: 12.5 mg/kg/injection, schedule: Q01DX009 (ip), vehicle: Klucel (hydroxypropylcellulose) (HPC)
[2] = dose: 25.0 mg/kg/injection, schedule: Q01DX009 (ip), vehicle: Klucel (hydroxypropylcellulose) (HPC)
[3] = dose: 50.0 mg/kg/injection, schedule: Q01DX009 (ip), vehicle: Klucel (hydroxypropylcellulose) (HPC)
[4] = dose: 100.0 mg/kg/injection, schedule: Q01DX009 (ip), vehicle: Klucel (hydroxypropylcellulose) (HPC)
[5] = dose: 200.0 mg/kg/injection, schedule: Q01DX009 (ip), vehicle: Klucel (hydroxypropylcellulose) (HPC)
[6] = dose: 12.5 mg/kg/injection, schedule: Q01DX009 (ip), vehicle: saline with Tween-80
[7] = dose: 25.0 mg/kg/injection, schedule: Q01DX009 (ip), vehicle: saline with Tween-80
[8] = dose: 50.0 mg/kg/injection, schedule: Q01DX009 (ip), vehicle: saline with Tween-80
[9] = dose: 100.0 mg/kg/injection, schedule: Q01DX009 (ip), vehicle: saline with Tween-80
[10] = dose: 200.0 mg/kg/injection, schedule: Q01DX009 (ip), vehicle: saline with Tween-80
[11] = dose: 100.0 mg/kg/injection, schedule: Q01DX009 (ip), vehicle: saline
[12] = dose: 12.5 mg/kg/injection, schedule: Q01DX009 (ip), vehicle: saline
[13] = dose: 25.0 mg/kg/injection, schedule: Q01DX009 (ip), vehicle: saline
[14] = dose: 50.0 mg/kg/injection, schedule: Q01DX009 (ip), vehicle: saline
[15] = dose: 6.25 mg/kg/injection, schedule: Q01DX009 (ip), vehicle: Klucel (hydroxypropylcellulose) (HPC)
[16] = dose: 200.0 mg/kg/injection, schedule: Q01DX009 (ip), vehicle: saline
[17] = dose: 3.12 mg/kg/injection, schedule: Q01DX009 (ip), vehicle: saline with Tween-80
[18] = dose: 6.25 mg/kg/injection, schedule: Q01DX009 (ip), vehicle: saline with Tween-80
[19] = dose: 6.25 mg/kg/injection, schedule: Q01DX009 (ip), vehicle: saline
[20] = dose: 1.56 mg/kg/injection, schedule: Q01DX009 (ip), vehicle: saline
[21] = dose: 3.12 mg/kg/injection, schedule: Q01DX009 (ip), vehicle: saline
[22] = dose: 100.0 mg/kg/injection, schedule: Q01DX009 (ip), vehicle: suspension in saline

## CC(C)N1C(=O)N(Cl)C2C1N(Cl)C(=O)N2Cl (centres undefined)
dose: 1.5 mg/kg/injection, schedule: Q01DX009 (ip), vehicle: saline with Tween-80
  T/C: 108 % of control
dose: 3.0 mg/kg/injection, schedule: Q01DX009 (ip), vehicle: saline with Tween-80
  T/C: 104 % of control
dose: 6.0 mg/kg/injection, schedule: Q01DX009 (ip), vehicle: saline with Tween-80
  T/C: 98 % of control
dose: 12.0 mg/kg/injection, schedule: Q01DX009 (ip), vehicle: saline with Tween-80
  T/C: 94 % of control
dose: 24.0 mg/kg/injection, schedule: Q01DX009 (ip), vehicle: saline with Tween-80
  T/C: 108 % of control

## O=S(=O)(SC(S(=O)(=O)c1ccccc1)S(=O)(=O)c1ccccc1)c1ccccc1
[1]
  T/C: 109 % of control
[2]
  T/C: 115 % of control
[3]
  T/C: 114 % of control
[4]
  T/C: 107 % of control
[5]
  T/C: 106 % of control
dose: 400.0 mg/kg/injection, schedule: Q01DX009 (ip), vehicle: Klucel (hydroxypropylcellulose) (HPC)
  T/C: 98 % of control

## O=C(N/N=C/c1cccc(O)c1O)N/N=C/c1cccc(O)c1O
[6]
  T/C: 118 % of control
[7]
  T/C: 112 % of control
[8]
  T/C: 116 % of control
[9]
  T/C: 106 % of control
[10]
  T/C: 106 % of control

## O=C(O)CNC(=O)c1ccccc1
dose: 40.0 mg/kg/injection, schedule: Q01DX009 (ip), vehicle: saline with Tween-80
  T/C: 96 % of control
dose: 80.0 mg/kg/injection, schedule: Q01DX009 (ip), vehicle: saline with Tween-80
  T/C: 95 % of control

## COc1ccc2c(c1)n([O-])c1ccccc1[n+]2=O
[6]
  T/C: 103 % of control
dose: 18.0 mg/kg/injection, schedule: Q01DX009 (ip), vehicle: saline with Tween-80
  T/C: 121 % of control
[7]
  T/C: 108 % of control
dose: 30.0 mg/kg/injection, schedule: Q01DX009 (ip), vehicle: saline with Tween-80
  T/C: 101 % of control and 103 % of control
[8]
  T/C: 113 % of control and 114 % of control
dose: 83.33 mg/kg/injection, schedule: Q01DX009 (ip), vehicle: saline with Tween-80
  T/C: 108 % of control and 115 % of control

## CC(C)CC(C(=O)O)N(C)C(=O)OC(C)(C)C (centres undefined)
[4]
  T/C: 101 % of control
[5]
  T/C: 90 % of control

## NC(CCCNc1ccc(O)cc1)C(=O)O (centres undefined)
dose: 75.0 mg/kg/injection, schedule: Q01DX009 (ip), vehicle: saline
  T/C: 122 % of control
[11]
  T/C: 98 % of control
dose: 150.0 mg/kg/injection, schedule: Q01DX009 (ip), vehicle: saline
  T/C: 106 % of control

## O=[N+]([O-])c1ccc(N2CCOCC2)c2c1no[n+]2[O-]
[6]
  T/C: 99 % of control
[7]
  T/C: 101 % of control
[8]
  T/C: 98 % of control
[9]
  T/C: 104 % of control

## O=S1(=O)CCCO1
[12]
  T/C: 95 % of control
[13]
  T/C: 99 % of control
[14]
  T/C: 94 % of control

## O=C(O)C1C2CC3C(C2)C31.[Ag] (centres undefined)
[15]
  T/C: 90 % of control
[1]
  T/C: 88 % of control
[2]
  T/C: 100 % of control

## O=C1c2ccccc2-c2c(Br)c3ccccc3c(=O)n21
[8]
  T/C: 90 % of control
[9]
  T/C: 101 % of control
[10]
  T/C: 95 % of control
dose: 400.0 mg/kg/injection, schedule: Q01DX009 (ip), vehicle: saline with Tween-80
  T/C: 94 % of control

## Cc1nnc(SCC2=C(C(=O)O)N3C(=O)C(NC(=O)Cn4cnnn4)C3SC2)s1 (centres undefined)
[14]
  T/C: 91 % of control
[11]
  T/C: 93 % of control
[16]
  T/C: 95 % of control

## C=C(C(=O)O)C(N)C(=O)O (centres undefined)
[13]
  T/C: 97 % of control
[14]
  T/C: 106 % of control
[11]
  T/C: 106 % of control
[16]
  T/C: 90 % of control

## CC1=C(C)C(=O)O[C@@H]([C@](C)(O)[C@]2(O)CC[C@@]3(O)[C@@H]4C[C@H]5O[C@]56CC=CC(=O)[C@]6(C)[C@H]4CC[C@]23C)C1
dose: 1.56 mg/kg/injection, schedule: Q01DX009 (ip), vehicle: saline with Tween-80
  T/C: 121 % of control
[17]
  T/C: 108 % of control
[18]
  T/C: 120 % of control
[19]
  T/C: 120 % of control
[6]
  T/C: 88 % of control
[12]
  T/C: 153 % of control
[13]
  T/C: 175 % of control

## OCCN1CCN(CC/C=C2/c3ccccc3Sc3ccc(Cl)cc32)CC1
[20]
  T/C: 101 % of control
[21]
  T/C: 102 % of control
[19]
  T/C: 103 % of control and 105 % of control
[12]
  T/C: 93 % of control and 106 % of control
[13]
  T/C: 100 % of control

## CS(=O)(=O)OCCN(CCOS(C)(=O)=O)c1ccc(C=Nc2ccc(-c3csc(COc4ccccc4)n3)cc2)cc1
[1]
  T/C: 114 % of control
[3]
  T/C: 162 % of control

## COc1cc(C2c3cc4c(cc3[C@@H](OC3OC5CO[C@@H](C)OC5C(O)C3O)[C@H]3COC(=O)C23)OCO4)cc(OC)c1OC (some centres undefined)
dose: 21.6 mg/kg/injection, schedule: Q01DX009 (ip), vehicle: suspension in saline
  T/C: 120 % of control
[13]
  T/C: 150 % of control
[14]
  T/C: 160 % of control
dose: 60.0 mg/kg/injection, schedule: Q01DX009 (ip), vehicle: suspension in saline
  T/C: 162 % of control
[11]
  T/C: 193 % of control
[22]
  T/C: 183 % of control

## Nc1c(Cl)[nH]cnc1=S
[13]
  T/C: 89 % of control
[14]
  T/C: 105 % of control
[11]
  T/C: 88 % of control and 91 % of control

## O=C(CNC(=O)OCc1ccccc1)NCC(=O)NC(Cc1c[nH]c2ccccc12)C(=O)O (centres undefined)
dose: 50.0 mg/kg/injection, schedule: Q01DX009 (ip), vehicle: suspension in saline
  T/C: 97 % of control
[22]
  T/C: 109 % of control and 117 % of control and 88 % of control
dose: 200.0 mg/kg/injection, schedule: Q01DX009 (ip), vehicle: suspension in saline
  T/C: 91 % of control and 99 % of control
dose: 400.0 mg/kg/injection, schedule: Q01DX009 (ip), vehicle: suspension in saline
  T/C: 88 % of control and 92 % of control and 107 % of control

## O=C(O)c1cc(Cc2ccc(O)c(C(=O)O)c2)ccc1O (tested in a mixture with another compound)
[15]
  T/C: 101 % of control
[1]
  T/C: 105 % of control
[2]
  T/C: 103 % of control
[3]
  T/C: 94 % of control
[4]
  T/C: 90 % of control
[5]
  T/C: 93 % of control

## CSC(SC)=C1C(=O)NC(=O)NC1=O
[21]
  T/C: 111 % of control
[19]
  T/C: 101 % of control
[12]
  T/C: 90 % of control
[13]
  T/C: 96 % of control

## O=[N+]([O-])c1ccc(Sc2ccncn2)c([N+](=O)[O-])c1
[6]
  T/C: 92 % of control
[7]
  T/C: 105 % of control
[8]
  T/C: 92 % of control
[9]
  T/C: 101 % of control

## C[CH2][Sn]([CH2]C)([O]S(C)(=O)=O)[O]S(C)(=O)=O
dose: 0.78 mg/kg/injection, schedule: Q01DX009 (ip), vehicle: saline
  T/C: 92 % of control
dose: 0.79 mg/kg/injection, schedule: Q01DX009 (ip), vehicle: saline
  T/C: 102 % of control
[20]
  T/C: 98 % of control and 103 % of control
[21]
  T/C: 97 % of control and 103 % of control
[19]
  T/C: 108 % of control and 96 % of control
[12]
  T/C: 91 % of control and 99 % of control

## CC(=O)O[C@H]1C(=O)[C@@]2(C)C(C(OC(=O)c3ccccc3)[C@]3(O)C[C@H](OC(=O)C(OC(=O)CCCC(=O)NCCCN(C)C)C(NC(=O)c4ccccc4)c4ccccc4)C(C)=C1C3(C)C)C1(OC(C)=O)COC1C[C@@H]2O (some centres undefined)
dose: 10.0 mg/kg/injection, schedule: Q01DX009 (ip), vehicle: water
  T/C: 191 % of control
dose: 20.0 mg/kg/injection, schedule: Q01DX009 (ip), vehicle: water
  T/C: 229 % of control
dose: 40.0 mg/kg/injection, schedule: Q01DX009 (ip), vehicle: water
  T/C: 289 % of control

## O=S1(=O)C=C(c2ccccc2)C(c2ccccc2)=C1
[17]
  T/C: 92 % of control and 98 % of control
[18]
  T/C: 95 % of control
[6]
  T/C: 113 % of control and 94 % of control
[7]
  T/C: 106 % of control
[8]
  T/C: 119 % of control

## NC=NCC(=O)O
[14]
  T/C: 108 % of control
[11]
  T/C: 105 % of control
[16]
  T/C: 97 % of control

## COc1ccc2c(c1OC(C)=O)-c1cc(OC(C)=O)cc3c1C(C2)N(C(=O)CN(CCCl)CCCl)CC3 (centres undefined)
dose: 1.56 mg/kg/injection, schedule: Q04DX003 (ip), vehicle: DMSO
  T/C: 120 % of control
dose: 3.13 mg/kg/injection, schedule: Q04DX003 (ip), vehicle: DMSO
  T/C: 120 % of control
dose: 6.25 mg/kg/injection, schedule: Q04DX003 (ip), vehicle: DMSO
  T/C: 159 % of control
dose: 12.5 mg/kg/injection, schedule: Q04DX003 (ip), vehicle: DMSO
  T/C: 150 % of control
dose: 25.0 mg/kg/injection, schedule: Q04DX003 (ip), vehicle: DMSO
  T/C: 150 % of control
dose: 50.0 mg/kg/injection, schedule: Q04DX003 (ip), vehicle: DMSO
  T/C: 170 % of control
